Values of other authors as cited in US20230018600A1, “CONTROLLED RELEASE FORMULATIONS COMPRISING DROTAVERINE OR SALT THEREOF” (priority 2020, published 2023).

Legend:
[1] = not given; remark: listed apart in the source
[2] = system: human isolated detrusor muscle; conditions: induced plateau of contraction

In the case of `CCOc1ccc(/C=C2\NCCc3cc(OCC)c(OCC)cc32)cc1OCC` [Drotaverine, (Z)-1-(3,4-diethoxybenzylidene)-6,7-diethoxy-1,2,3,4-tetrahydroisoquinoline], the “renal clearance as share of total plasma clearance” value (IR Drotaverine Tablets 80 mg) is given as 0.31+/−0.13%, the onset of action (after oral administration of 80 mg strength IR tablets) is given as at most 12 min and the “drug absorption from small intestine” value (oral, 80 mg IR tablets) is given as about 90%. The “absolute bioavailability, range” value (oral, IR tablets 80 mg, subject-dependent range) was 24.5-91%, the “oral LD50” value [1] was over 1000 mg/Kg body weight and the “relaxation of human detrusor muscle contraction” value [2] was “significant concentration-dependent relaxation”.
